# Results reported in patent US8383608B2, “Imidazolidine compounds as androgen receptor modulators” (Dart Therapeutics LLC, priority 2008, dated 2013).
# Read-outs that look alike come from different tables or passages of the source.
# Key:
# [1] = Determination of absolute bioavailability (restricted PK profile, oral and intravenous); assay type: in vivo; conditions: male, Sprague-Dawley, rat, plasma, po, 10 mg/kg, absolute bioavailability (F), male Sprague Dawley rats, oral 10 mg/kg AUC(0-6 h) vs intravenous 3 mg/kg AUC(0-3 h); read-out: Bioavailability
# Experimental: To screen rapidly imidazolidines derivatives based on their absolute bioavailabity, restricted pharmacokinetic profile with only fours sampling time points after oral and intravenous route is investigated in Sprague Dawley rats as follows: each test compound is dosed orally (10 mg/kg) and intravenously (3 mg/kg) to groups of 3 male Sprague Dawley rats. Oral doses are administered as solution in EtOH/PEG400/H2O (1/79/20; v/v) by esophageal gavage (2 mg/mL; 5 mL/kg) and intravenous dose is given as solution in DMSO/PEG400/H2O (1/65/34; v/v) as a bolus in the tail vein (3 mg/mL; 1 mL/kg). Before oral dosing, animals are deprived of food (water ad libitum) for at least 16 hours before the start of the study and 6 hours after administration.
# Blood is collected at the retro-orbital sinus into polypropylene tubes (Li-heparinate) at +4° C. at the following sampling-times: 0.083, 0.25, 1 and 3 h after intravenous injection and 0.25, 1, 3 and 6 hours after oral dosing. Three (3) animals are sampled per time-point; each animal being sampled four times. After centrifugation at 5000 rpm for 10 min at +4° C., plasma is collected into polypropylene tubes and kept frozen at −20° C. pending assays. Plasma samples are assayed by a LC-MS/MS method with a lower limit of quantification of 1 to 10 ng/mL depending on the compound (volume of plasma: 100 μL).
# A LC-MS/MS method for quantification in heparinized plasma was developed for each test compound. Sample preparation consists of a precipitation of plasma proteins with methanol and filtration by centrifugation of supernatant on Captiva deep-well 96 0.2 μm filter plates. Water was added to methanol supernatant phase prior to analysis by liquid chromatography (Pursuit 5 C18 20×2.0 mm VARIAN, 2 μL loop, gradient Water/Methanol (90/10 to 0/100) over 1.7 min) with turboionspray tandem mass spectrometry (API4000) in negative mode using multiple reaction monitoring. The method includes 8 standard and 3 quality control levels with lower limit of quantification corresponding to first standard level.
# Exposures are determined using a non compartmental model (WinNonLin 2.1) and the absolute bioavailability (F) is calculated as follows: [AUC(0-6 h) oral*3 mg/kg]/AUC(0-3 h) IV 10 mg/kg] and expressed in percentage.
# [2] = test system: castrated immature young rats; test: Adapted model of Hershberger's test; assay type: in vivo, Sprague Dawley rats; conditions: Rattus norvegicus, po, 96 h, ORX control = 0%, SHAM control = 100%, per os daily for 4 days, dose tested 30 mg/kg
# [3] = target: T1, human androgen receptor (hAR) (Homo sapiens, UniProt P10275); test: Functional response (transactivation) test in HALP2 cells (HeLa stably expressing hAR and ARE-luciferase reporter); assay type: cell-based; conditions: HALP2 cells; for Emax: HeLa, maximal activation by the compound compared with DHT alone (100%), read-out: % effect relative to DHT (100%)
# T1 construct: expressed in transfected cells
# T1 sequence (P10275 1-920): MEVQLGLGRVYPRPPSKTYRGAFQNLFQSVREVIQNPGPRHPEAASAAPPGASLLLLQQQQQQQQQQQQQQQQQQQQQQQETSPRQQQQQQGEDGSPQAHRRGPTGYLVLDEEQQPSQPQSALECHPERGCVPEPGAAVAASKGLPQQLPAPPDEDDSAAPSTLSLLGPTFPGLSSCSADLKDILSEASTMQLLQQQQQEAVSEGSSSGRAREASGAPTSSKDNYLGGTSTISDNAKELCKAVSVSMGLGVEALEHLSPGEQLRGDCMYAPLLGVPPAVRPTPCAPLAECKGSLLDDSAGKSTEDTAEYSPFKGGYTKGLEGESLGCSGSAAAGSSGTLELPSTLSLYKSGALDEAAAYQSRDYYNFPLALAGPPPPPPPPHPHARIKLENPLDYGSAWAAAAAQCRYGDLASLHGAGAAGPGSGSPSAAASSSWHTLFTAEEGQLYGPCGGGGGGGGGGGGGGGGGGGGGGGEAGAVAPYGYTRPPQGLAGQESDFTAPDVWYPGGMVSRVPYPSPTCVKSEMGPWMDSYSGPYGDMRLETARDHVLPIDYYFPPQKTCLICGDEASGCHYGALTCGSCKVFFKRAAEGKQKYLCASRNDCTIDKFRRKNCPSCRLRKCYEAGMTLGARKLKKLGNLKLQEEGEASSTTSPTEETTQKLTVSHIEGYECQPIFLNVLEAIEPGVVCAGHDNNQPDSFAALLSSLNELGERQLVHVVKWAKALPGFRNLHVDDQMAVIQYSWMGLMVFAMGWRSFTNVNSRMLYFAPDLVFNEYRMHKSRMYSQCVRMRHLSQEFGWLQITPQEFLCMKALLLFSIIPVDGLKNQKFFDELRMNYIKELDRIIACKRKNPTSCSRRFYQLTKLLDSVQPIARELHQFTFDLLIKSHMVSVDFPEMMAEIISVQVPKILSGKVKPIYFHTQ
# Description: This test constitutes a method of identifying pure or partial agonists which mimic the effects of natural hormones, such as DHT (dihydrotestosterone) in the present case or, on the other hand, antagonists which inhibit them.
# For this transactivation test, plasmids encoding a reporter gene and the human androgen receptor (hAR) are introduced together by transfection into the HeLa cell line. The reporter plasmid contains luciferase cDNA under the control of the AREs contained in the promoter sequences of the probasin gene (3xpbAREminicoll-luciferase/pGL3-puro). The expression of the reporter gene constitutes an indication of the transcriptional activity of hAR. It also encodes a protein allowing the cells expressing it to resist a treatment with puromycin. The plasmid encoding hAR contains the cDNA of hAR under the control of the Cytomegalovirus (CMV) promoter. It also encodes a protein allowing the cells expressing it to resist a treatment with neomycin. The treatment of cells with increasing amounts of potentially agonistic compounds will increase the expression of the reporter gene. To detect antagonists, on the other hand, increasing doses of test compounds are tested in the presence of […] of DHT. The expression of the reporter gene, which is constant for each dose of DHT, decreases when the concentration of the test compounds increases.
# The functional response test is conducted on 96-well plates. The HALP2 cells are seeded (20,000 cells per well) in culture medium (DMEM with phenol red, 1% de Pen-Strep, 1% of non-essential amino acids, 10% of fetal bovine serum, 400 μg/mL Geneticin and 0.150 puromycin) on day 1. After 24 hours incubating at 37° C., 5% CO2, high humidity (day 2) the medium is removed and refreshed with test medium (DMEM without phenol red supplemented, 1% de Pen-Strep, 1% of non-essential amino acids and 5% of desteroidised foetal bovine serum). After another 24 hours incubating at 37° C., 5% CO2, high humidity (day 3), the medium is renewed once more before the phase of stimulation.
# The cells are placed in contact with the compounds for 24 hours at 37° C., 5% CO2, high humidity. On day 4 the medium is then removed and the luciferase activity reading reagent is placed in contact with the cells in accordance with the manufacturer's instructions (SteadyLite, Perkin-Elmer). The luminescence produced is detected on an Envision reader (Perkin-Elmer). […]
# The determination of the relative agonism/antagonism of a compound is obtained by comparing the maximal activation obtained with said compound and the activation obtained with DHT alone (100%).
# [4] = levator ani weight, read-out: Anabolic activity %
# [5] = ventral prostate weight, read-out: Androgenic activity % (Prostate)
SMILES,bioavailability [1] [%],"response vs control in vivo at 30 mg/kg [2, 4] [%]","response vs control in vivo at 30 mg/kg [2, 5] [%]",Emax [3] [%],"EC50 ([3]; agonism: concentration inducing 50% of the maximum agonistic effect of the tested compound, 24 hours, read-out: EC50) [nM]"
"CN1C(=O)N(c2ccc(C#N)c(C(F)(F)F)c2)C(=O)C1(CO)c1ccc(F)cc1 (centres unmarked) [Example 6, 4-[2,5-Dioxo-4-(4-fluorophenyl)-4-(hydroxymethyl)-3-methylimidazolidin-1-yl]-2-trifluoromethylbenzonitrile]",50 to 90,25 to 50,0.5 to 25,21 to 40,11 to 100
"CN1C(=O)N(c2ccc(C#N)c(C(F)(F)F)c2)C(=O)[C@]1(CO)c1ccccc1 [Example 11, (R)-4-[2,5-Dioxo-4-(hydroxymethyl)-3-methyl-4-phenylimidazolidin-1-yl]-2-trifluoromethylbenzonitrile]",–,50 to 75,0.5 to 25,0 to 5,–
